# Data reported in article PMC4459640 (European journal of pharmaceutical sciences : official …, 2014).
# B1: human SULT2A1 (Homo sapiens) (protein)
# chain: MSDDFLWFEGIAFPTMGFRSETLRKVRDEFVIRDEDVIILTYPKSGTNWLAEILCLMHSKGDAKWIQSVPIWERSPWVESEIGYTALSETESPRLFSSHLPIQLFPKSFFSSKAKVIYLMRNPRDVLVSGYFFWKNMKFIKKPKSWEEYFEWFCQGTVLYGSWFDHIHGWMPMREEKNFLLLSYEELKQDTGRTIEKICQFLGKTLEPEELNLILKNSSFQSMKENKMSNYSLLSVDYVVDKAQLLRKGVSGDWKNHFTVAQAEDFDKLFQEKMADLPRELFPWE
# Assays:
# [1] = tested on: HepG2 human hepatoma cells
# human SULT1A1 = human SULT1A1 (Homo sapiens, UniProt P50225); conditions: pH 7.5
# human SULT1A2 = human SULT1A2 (Homo sapiens, UniProt P50226); conditions: pH 7.5
# UGT2B7 = conditions: cited from earlier work
# opioid receptors [2] = conditions: ref Brown et al., 1985, Frölich et al., 2011, Zuckerman et al., 1999; cited from earlier work
# opioid receptors [3] = conditions: ref Brown et al., 1985, Frölich et al., 2011, Zuckerman et al., 1999; cited from earlier work; remark: listed apart in the source
# [4] = ref Brown et al., 1985, Frölich et al., 2011, Zuckerman et al., 1999; cited from earlier work
# [5] = morphine metabolites in human; ref Frölich et al., 2011, Skarke and Lötsch, 2002; cited from earlier work
# [6] = human, rabbit, and rat; ref Frölich et al., 2011, Smith et al., 1973, Skarke and Lötsch, 2002; cited from earlier work
# not read = substrate: Oc1ccc2c(c1)[C@@]13CCCC[C@@]1(O)[C@@H](C2)N(CC1CCC1)CC3; assay: not read; conditions: other: Michaelis-Menten, pH 7.5
# [7] = substrate: CN1CC[C@]23CCCC[C@H]2[C@H]1Cc1ccc(O)cc13; format: in vitro ADME, human; conditions: other: Michaelis-Menten, pH 7.5
# Sequence of human SULT1A1 (P50225 whole entry): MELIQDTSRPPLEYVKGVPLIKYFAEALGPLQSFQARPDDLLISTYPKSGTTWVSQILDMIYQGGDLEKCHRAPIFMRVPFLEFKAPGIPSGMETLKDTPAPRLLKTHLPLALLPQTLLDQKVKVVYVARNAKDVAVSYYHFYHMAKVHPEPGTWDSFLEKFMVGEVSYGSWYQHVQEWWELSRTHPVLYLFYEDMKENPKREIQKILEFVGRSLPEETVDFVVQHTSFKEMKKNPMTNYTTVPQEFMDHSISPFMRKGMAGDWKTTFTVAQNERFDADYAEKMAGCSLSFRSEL
# Sequence of human SULT1A2 (P50226 whole entry): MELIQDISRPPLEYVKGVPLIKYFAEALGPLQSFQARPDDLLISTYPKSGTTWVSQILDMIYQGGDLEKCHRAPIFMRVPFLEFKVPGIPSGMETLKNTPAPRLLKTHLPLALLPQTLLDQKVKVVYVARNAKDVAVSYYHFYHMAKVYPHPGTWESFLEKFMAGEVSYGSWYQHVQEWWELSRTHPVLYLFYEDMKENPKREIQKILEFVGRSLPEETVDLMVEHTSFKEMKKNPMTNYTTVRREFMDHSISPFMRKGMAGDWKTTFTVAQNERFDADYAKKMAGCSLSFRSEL
molecule,measurement,setting,value
"Oc1ccc2c(c1)[C@@]13CCCC[C@@]1(O)[C@@H](C2)N(CC1CCC1)CC3 [Butorphanol, butorphanol]",Efficiency of sulfation by HepG2 cells relative to the other three opioid drugs,[1],more efficiently
"C=CCN1CC[C@]23c4c5ccc(O)c4O[C@H]2[C@@H](O)C=C[C@H]3[C@H]1C5 [Nalorphine, nalorphine]",Efficiency of sulfation by HepG2 cells relative to the other three opioid drugs,[1],more efficiently
"Oc1ccc2c3c1O[C@H]1[C@H](O)CC[C@@]4(O)[C@@H](C2)N(CC2CC2)CC[C@]314 [6βNaltrexol, 6β-naltrexol]","Specific activity, SULT1A1",human SULT1A1,0.21 ± 0.03 nmol/min/mg
same,"Specific activity, SULT1A2",human SULT1A2,0.08 ± 0.01 nmol/min/mg
"CN1CC[C@]23c4c5ccc(O)c4O[C@H]2C(=O)CC[C@@]3(O)[C@H]1C5 [Oxymorphone, oxymorphone]",Efficiency of sulfation by HepG2 cells relative to the other three opioid drugs,[1],more efficiently
same,Km,UGT2B7,540 to 1360 µM
CN1CC[C@]23c4c5ccc(O)c4O[C@H]2[C@@H](OS(=O)(=O)O)C=C[C@H]3[C@H]1C5 [morphine-6-sulfate],Affinity toward opioid receptors,opioid receptors [2],comparable to those of morphine
same,Capability to activate the opioid receptors (ligand activity),opioid receptors [3],comparable to those of morphine
same,Analgesic effect compared with morphine,[4],greater analgesic effect than does morphine
CN1CC[C@]23c4c5ccc(O)c4O[C@H]2[C@@H](O[C@@H]2O[C@H](C(=O)O)[C@@H](O)[C@H](O)[C@H]2O)C=C[C@H]3[C@H]1C5 [morphine-glucuronide],Share of metabolite,[5],60–70 % of metabolite
"CN1CC[C@]23c4c5ccc(OS(=O)(=O)O)c4O[C@H]2[C@@H](O)C=C[C@H]3[C@H]1C5 [morphine-3-sulfate, morphine-3-O-sulfate]",Affinity toward opioid receptors,opioid receptors [2],low affinity
same,Capability to activate the opioid receptors (ligand activity),opioid receptors [3],low capability to activate the receptors
same,Sulfate metabolite as share of the metabolites from urine,[6],~ 2%
B1,Km,not read,38.95 ± 1.21 µM
same,Vmax,not read,0.00104 µmol/min/mg
same,Km,[7],599.0 ± 60.7 µM
same,Vmax,[7],0.00032 µmol/min/mg
